Laboratory results from patent publication EP0494283B1, “1,4-BENZODIOXANE DERIVATIVES, PROCESS FOR THE PREPARATION THEREOF AND PHARMACEUTICAL COMPOSITIONS THEREFROM” (LABORATORIOS MENARINI S.A., priority 1990, dated 1992).
Counter-ions that a name gives are not always drawn. Like-named read-outs stand apart in the source and are kept apart here.

What was measured:
Format in all cases: cell-based
[1] = system: PAF-induced platelet aggregation; experiment: Inhibition of PAF-induced platelet aggregation (aggregometry, washed platelets); conditions: Oryctolagus cuniculus, rabbit washed platelets, on the maximum aggregation values of the PAF standard curve, read-out: Paf-antagonism IC₅₀
Protocol: (§1) Platelets are prepared starting from blood samples obtained by means of a carotid cannula from male albino New Zealand rabbits (2-2.5 kg), subjected to anticoagulant treatment with sodium citrate dihydrate (3.2%) 1:10. Blood is centrifuged (150xg, 10 min, 22°C) to separate the platelet-rich plasma fraction (PRP) from erythrocytes. Platelets are separated from plasmatic components by serial washings and centrifugations (Blood, 1986, 62:337), thereafter they are suspended in a physiological buffer at a concentration of 5 x 10⁵/ml. A 400 µl volume of the above mentioned suspension is placed into the cuvette of a multicanal aggregometer (Aggrecoder HU) where it is kept at constant temperature and stirring. After stabilization, platelets are added with 50 µl of physiological buffer containing 100 µM acetylsalicylic acid and apirase 5 mg/ml, in order to block any non PAF-related platelet activation metabolic pathways. Subsequently the platelet suspensions are added with 50 µl of the different solutions to be tested. Changes in light transmission, due to platelet aggregation in the suspension, are recorded and expressed as percent platelet aggregation, according to the procedure by Born and Cross (J. Physiol., 1962, 162:67). Standard curve is performed with PAF within a concentration range of 0.1-1 nM.
Capability to inhibit PAF-induced platelet aggregation is evaluated by means of the aggregometry technique in suspensions of rabbit washed platelets, obtained by means of the same procedure as described in Example 32. For this purpose, the inhibition potency of the products under test, expressed as the corresponding IC₅₀, is evaluated on the maximum aggregation values obtained in PAF standard curve.

HL-60 tumor cells = experiment: Cytotoxic activity, Trypan Blue exclusion; conditions: Homo sapiens, read-out: Cytotoxicity EC₅₀
Protocol: Suspensions of HL-60 Line cells, obtained starting from human promyelocyte leukemia, are incubated in 6-well culture plates for 24 hours at 37°C, at a concentration of 1 x 10⁶ cells/ml, in the presence of the test products, which have previously been dissolved in the culture medium. Cytotoxicity is measured by means of the Trypan Blue exclusion technique (Practical Immunology, pp 29-32, Oxford, England : Blackwell Scientific Publications, 1976).

rabbit washed platelets = experiment: Platelet aggregating effect (aggregometry, washed platelets); conditions: Oryctolagus cuniculus, suspension of rabbit washed platelets, acetylsalicylic acid and apirase added, read-out: Aggregation EC₅₀
Protocol: as §1

[2] = HL-60 cells, 1 x 10⁶ cells/ml, 24 hours at 37°C

Compound	IC50 [1]	EC50 (HL-60 tumor cells; HL-60, 24 h)	EC50 (HL-60 tumor cells; [2])	other results
C[N+](C)(C)CCCCCCCCCCOCC1COc2ccccc2O1 (centres unmarked) [Example 4, N-[10-[[(1,4-Benzodioxan-2-yl)methyl]oxy]decyl]-N,N,N-trimethylammonium bromide]	130 µM	70 µM		
C[N+](C)(C)CCCCCCCCCCCCCCCCOCC1COc2ccccc2O1 (centres unmarked) [Example 5, N-[16[[(1,4-Benzodioxan-2-yl)methyl]oxy]hexadecyl]-N,N,N-trimethylammonium bromide]	20 µM	18 µM		
C[N+](C)(C)CCCCCCOCCCCCCCCCCOCC1COc2ccccc2O1 (centres unmarked) [Example 6, N-[6-[[(10-[[1,4-Benzodioxan-2-yl)methyl]oxy]decyl]oxy]hexyl]-N,N,N-trimethylammonium bromide]			11 µM	
C[N+](C)(C)CCCCCCCCCCOCCCCCCCCCCOCC1COc2ccccc2O1 (centres unmarked) [Example 7, N-[10-[[10-[[(1,4-Benzodioxan-2-yl)methyl]oxy]decyl]oxy]decyl]-N,N,N-trimethylammonium bromide]			15 µM	
CC[N+](CC)(CC)CCCCOCC1COc2ccccc2O1 (centres unmarked) [Example 8, N-[4-[[(1,4-Benzodioxan-2-yl)methyl]oxy]butyl]-N,N,N-triethylammonium bromide]				EC50 (rabbit washed platelets): > 190 µM
CC[N+](CC)(CC)CCCCCCCCCCOCC1COc2ccccc2O1 (centres unmarked) [Example 10, N-[10-[[(1,4-Benzodioxan-2-yl)methyl]oxy]decyl]-N,N,N-triethylammonium bromide]	90 µM	30 µM		
c1ccc2c(c1)OCC(COCCCCCCCCCCN1CCCCC1)O2 (centres unmarked) [Example 15, N-[10-[[(1,4-Benzodioxan-2-yl)methyl]oxy]decyl]piperidine hydrochloride]			20 µM	
c1ccc2c(c1)OCC(COCCCCN1CCOCC1)O2 (centres unmarked) [Example 16, N-[4-[[(1,4-Benzodioxan-2-yl)methyl]oxy]butyl]morpholine hydrochloride]			18 µM	
c1ccc2c(c1)OCC(COCCCCCCCCCCN1CCOCC1)O2 (centres unmarked) [Example 19, N-[10-[[(1,4-Benzodioxan-2-yl)methyl]oxy]decyl]morpholine hydrochloride]			30 µM	
C[N+]1(CCCCCOCC2COc3ccccc3O2)CCCCC1 (centres unmarked) [Example 21, N-[5-[[(1,4-Benzodioxan-2-yl)methyl]oxy]pentyl]-N-methylpiperidinium iodide]				EC50 (rabbit washed platelets): > 190 µM
C[N+]1(CCCCCCCCCCOCC2COc3ccccc3O2)CCCCC1 (centres unmarked) [Example 23, N-[10-[[(1,4-Benzodioxan-2-yl)methyl]oxy]decyl]-N-methylpiperidinium bromide]	75 µM	20 µM		
C[N+]1(CCCCCCCCCCCCCCCCOCC2COc3ccccc3O2)CCCCC1 (centres unmarked) [Example 24, N-[16-[[(1,4-Benzodioxan-2-yl)methyl]oxy]hexadecyl]-N-methylpiperidinium bromide]			6 µM	
C[N+]1(CCCCCCOCCCCCCCCCCOCC2COc3ccccc3O2)CCCCC1 (centres unmarked) [Example 25, N-[6-[[(10-[[1,4-Benzodioxan-2-yl)methyl]oxy]decyl]oxy]hexyl]-N-methylpiperidinium bromide]			3 µM	
C[N+]1(CCCCCCCCCCOCCCCCCCCCCOCC2COc3ccccc3O2)CCCCC1 (centres unmarked) [Example 26, N-[10-[[10-[[(1,4-Benzodioxan-2-yl)methyl]oxy]decyl]oxy]decyl]-N-methylpiperidinium bromide]			28 µM	
C[N+]1(CCCCCCCCCCOCC2COc3ccccc3O2)CCOCC1 (centres unmarked) [Example 30, N-[10-[[(1,4-Benzodioxan-2-yl)methyl]oxy]decyl]-N-methylmorpholinium iodide]	190 µM	30 µM		
